Assays:
Format in all cases: cell-based
[1] = test system: AAV producer cells (HEK293 cells); assay: AAV productivity with culture media additives supplemented two hours post-transfection (shake flasks)
Protocol: For each parameter tested, HEK293 cells were expanded by shake flask culture with a target seed density of >0.25E6 viable cells/mL and a target final density of <6E6 viable cells/mL. […]
(§1) Cell transfection was performed generally as described in Grieger et al. (2016) Molecular Therapy 24(2): 287-297. Briefly, transfection mixes were prepared by mixing calculated volumes of vector(s), transfection media, and polyethylenimine (PEI), all at ambient temperature, and allowed to equilibrate before the transfection mixes were added to the cells. Post-transfection bioreactor setpoint shifts were performed 2 hours post-transfection, and cells were harvested 72 hours post-transfection. […] Productivity was measured by vector genome titer and capsid yield. Vector genome (VG) titer was determined by droplet digital PCR (ddPCR) by standard methods using primer/probe sets specific to the transgene payload of the vector comprising the transgene. Capsid yield was determined using enzyme-linked immunosorbent assays (ELISAs) by standard methods with an immobilized antibody directed against an epitope of the capsid as encoded by the vector comprising the capsid sequences. Percentage of intact vector genomes (% Full capsids) was calculated by dividing the vector genome productivity determined by ddPCR by the number of capsids determined by ELISA. […]

[2] = test system: AAV producer cells (HEK293 cells); assay: DMSO time course analysis of AAV productivity; conditions: 1.5% (v/v) DMSO added two hours pre-transfection and up to 30 minutes post-transfection; compared to the other time points tested
Protocol: For each parameter tested, HEK293 cells were expanded by shake flask culture with a target seed density of >0.25E6 viable cells/mL and a target final density of <6E6 viable cells/mL. Expanded cells were inoculated into an Applikon 3 L Glass Bioreactor containing the appropriate amount of cell culture medium prior to transfection at a 2 L working volume.
as §1, with “cells.” for “cells. Post-transfection bioreactor setpoint shifts were performed 2 hours post-transfection, and cells were harvested 72 hours post-transfection.”

second HEK293 cell line [3] = assay: AAV productivity with DMSO supplementation 30-120 minutes post-transfection, 3 L single-use bioreactors; conditions: DMSO 120 minutes vs 30 minutes post-transfection, pH 7.0, 39° C.
Protocol: (§2) Cell transfection was performed generally as described in Grieger et al. (2016) Molecular Therapy 24(2): 287-297. Briefly, transfection mixes were prepared by mixing calculated volumes of vector(s), transfection media, and polyethylenimine (PEI), all at ambient temperature, and allowed to equilibrate before the transfection mixes were added to the cells. Post-transfection bioreactor setpoint shifts were performed 2 hours post-transfection, and cells were harvested 72 hours post-transfection. Harvested cells were lysed as described in Grieger et al. (2016) Molecular Therapy 24(2): 287-297. Crude lysate samples were collected following centrifugation to remove cellular debris. Productivity was measured by vector genome titer and capsid yield. Vector genome (VG) titer was determined by droplet digital PCR (ddPCR) by standard methods using primer/probe sets specific to the transgene payload of the vector comprising the transgene. Capsid yield was determined using enzyme-linked immunosorbent assays (ELISAs) by standard methods with an immobilized antibody directed against an epitope of the capsid as encoded by the vector comprising the capsid sequences. Percentage of intact vector genomes (% Full capsids) was calculated by dividing the vector genome productivity determined by ddPCR by the number of capsids determined by ELISA.
Based on the findings above, the effects of post-transfection pH, and the effect of supplementing the culture media with DMSO at 30-120 minutes post-transfection were further tested using a different representative AAV particle. Experiments were performed with a second HEK293 cell line according to the methods described in Examples 1 and 5 using 3 L single-use bioreactors.
AAV productivity, in terms of vector genome (VG) titer (FIG. 8A), capsid yield (FIG. 8B), and percent intact vector genomes (% Full; FIG. 8C), was measured as described in Example 1.

second HEK293 cell line [4] = assay: AAV productivity at different DMSO concentrations, shake flasks
Protocol: as §2
The conditions of DMSO supplementation were further tested using different representative AAV particles. Experiments were performed with a second HEK293 cell line according to the methods described in Example 1 using shake flasks.
AAV productivity, in terms of vector genome (VG) titer (FIGS. 9A and 10A), capsid yield (FIGS. 9B and 10B), and percent intact vector genomes (% Full; FIGS. 9C and 10C), was measured as described in Example 1.

## C[S+](C)[O-] [DMSO, dimethyl sulfoxide]
[1]; DMSO added two hours post-transfection, compared to the other additives
  percent full capsids: higher percent full capsids
[1]; additive added two hours post-transfection, all tested concentrations (Table 5), over control conditions without additive, ddPCR, crude lysate
  VG titer: general increase
[2]
  percent yield of full capsids: higher percent yield of full capsids
Second HEK293 cell line [3]
  VG titers: similar
  capsid yields: similar
  intact vector genomes: similar
Second HEK293 cell line [4]; FIG. 9A, 0.5% to 2.25% DMSO two hours post-transfection, up to a DMSO concentration of 1.5%
  VG titer: increased
Second HEK293 cell line [4]; FIG. 9B, 0.5% to 2.25% DMSO two hours post-transfection, up to a DMSO concentration of 1.5%
  capsid titer: increased or comparable
Second HEK293 cell line [4]; FIG. 9C, 0.5% to 2.25% DMSO two hours post-transfection
  percent full capsids: increased
Second HEK293 cell line [4]; FIG. 10A, 0.75% DMSO two hours post-transfection compared with 0% DMSO
  VG titer: increased
Second HEK293 cell line [4]; FIG. 10A, 1.5% DMSO two hours post-transfection compared with 0.75% DMSO
  VG titer: comparable
Second HEK293 cell line [4]; FIG. 10B, 0.75% DMSO two hours post-transfection compared with 0% DMSO
  capsid titer: increased
Second HEK293 cell line [4]; FIG. 10B, 1.5% DMSO two hours post-transfection compared with 0.75% DMSO
  capsid titer: decreased
Second HEK293 cell line [4]; FIG. 10C, 0.75% DMSO two hours post-transfection compared with 0% DMSO
  percent full capsids: comparable
Second HEK293 cell line [4]; FIG. 10C, 1.5% DMSO two hours post-transfection compared with 0.75% DMSO
  percent full capsids: increased

From patent publication US20230279433A1, “METHODS AND COMPOSITIONS FOR THE PRODUCTION OF ADENO-ASSOCIATED VIRUS” (priority 2021, published 2023)
